Test results taken from ChEMBL document CHEMBL3044736, “Synthesis, characterization, solvatochromic properties, and antimicrobial evaluation of 5-acetyl-2-thioxo-dihydro-pyrimidine-4,6-dione-based chalcones” (2013).
≈ marks a conversion by molar mass, not a printed value.

How the values were obtained:
Format in all cases: functional
Trichophyton rubrum [1] = experiment: Antimicrobial activity against Trichophyton rubrum MTCC 296 assessed as diameter of growth inhibition zone at 250 ug/ml after 48-96 hr by agar cup diffusion method; conditions: read-out: DIZ
Trichophyton rubrum [2] = experiment: Antimicrobial activity against Trichophyton rubrum MTCC 296 by agar cup diffusion method
Streptococcus pyogenes [3] = experiment: Antimicrobial activity against Streptococcus pyogenes MTCC 442 assessed as diameter of growth inhibition zone at 100 ug/ml after 18-24 hr by agar cup diffusion method; conditions: read-out: DIZ
Streptococcus pyogenes [4] = experiment: Antimicrobial activity against Streptococcus pyogenes MTCC 442 assessed as diameter of growth inhibition zone at 250 ug/ml after 18-24 hr by agar cup diffusion method; conditions: read-out: DIZ
Aspergillus clavatus [5] = experiment: Antimicrobial activity against Aspergillus clavatus MTCC 1323 assessed as diameter of growth inhibition zone at 100 ug/ml after 48-96 hr by agar cup diffusion method; conditions: read-out: DIZ
Candida albicans [6] = experiment: Antimicrobial activity against Candida albicans MTCC 227 assessed as diameter of growth inhibition zone at 250 ug/ml after 48-96 hr by agar cup diffusion method; conditions: read-out: DIZ
Trichophyton rubrum [7] = experiment: Antimicrobial activity against Trichophyton rubrum MTCC 296 assessed as diameter of growth inhibition zone at 50 ug/ml after 48-96 hr by agar cup diffusion method; conditions: read-out: DIZ
Klebsiella pneumoniae [8] = experiment: Antimicrobial activity against Klebsiella pneumoniae MTCC 109 assessed as diameter of growth inhibition zone at 25 ug/ml after 18-24 hr by agar cup diffusion method; conditions: read-out: DIZ
Klebsiella pneumoniae [9] = experiment: Antimicrobial activity against Klebsiella pneumoniae MTCC 109 assessed as diameter of growth inhibition zone at 50 ug/ml after 18-24 hr by agar cup diffusion method; conditions: read-out: DIZ
Pseudomonas aeruginosa [10] = experiment: Antimicrobial activity against Pseudomonas aeruginosa MTCC 1688 by agar cup diffusion method
Aspergillus clavatus [11] = experiment: Antimicrobial activity against Aspergillus clavatus MTCC 1323 assessed as diameter of growth inhibition zone at 250 ug/ml after 48-96 hr by agar cup diffusion method; conditions: read-out: DIZ
Klebsiella pneumoniae [12] = experiment: Antimicrobial activity against Klebsiella pneumoniae MTCC 109 assessed as diameter of growth inhibition zone at 250 ug/ml after 18-24 hr by agar cup diffusion method; conditions: read-out: DIZ
Candida albicans [13] = experiment: Antimicrobial activity against Candida albicans MTCC 227 assessed as diameter of growth inhibition zone at 100 ug/ml after 48-96 hr by agar cup diffusion method; conditions: read-out: DIZ
Staphylococcus aureus [14] = experiment: Antimicrobial activity against Staphylococcus aureus MTCC 96 by agar cup diffusion method
Staphylococcus aureus [15] = experiment: Antimicrobial activity against Staphylococcus aureus MTCC 96 assessed as diameter of growth inhibition zone at 50 ug/ml after 18-24 hr by agar cup diffusion method; conditions: read-out: DIZ
Pseudomonas aeruginosa [16] = experiment: Antimicrobial activity against Pseudomonas aeruginosa MTCC 1688 assessed as diameter of growth inhibition zone at 100 ug/ml after 18-24 hr by agar cup diffusion method; conditions: read-out: DIZ
Aspergillus clavatus [17] = experiment: Antimicrobial activity against Aspergillus clavatus MTCC 1323 assessed as diameter of growth inhibition zone at 50 ug/ml after 48-96 hr by agar cup diffusion method; conditions: read-out: DIZ
Staphylococcus aureus [18] = experiment: Antimicrobial activity against Staphylococcus aureus MTCC 96 assessed as diameter of growth inhibition zone at 100 ug/ml after 18-24 hr by agar cup diffusion method; conditions: read-out: DIZ
Pseudomonas aeruginosa [19] = experiment: Antimicrobial activity against Pseudomonas aeruginosa MTCC 1688 assessed as diameter of growth inhibition zone at 250 ug/ml after 18-24 hr by agar cup diffusion method; conditions: read-out: DIZ
Penicillium [20] = experiment: Antimicrobial activity against Penicillium wild strain assessed as diameter of growth inhibition zone at 50 ug/ml after 48-96 hr by agar cup diffusion method; conditions: read-out: DIZ
Streptococcus pyogenes [21] = experiment: Antimicrobial activity against Streptococcus pyogenes MTCC 442 assessed as diameter of growth inhibition zone at 25 ug/ml after 18-24 hr by agar cup diffusion method; conditions: read-out: DIZ
Aspergillus clavatus [22] = experiment: Antimicrobial activity against Aspergillus clavatus MTCC 1323 by agar cup diffusion method
Pseudomonas aeruginosa [23] = experiment: Antimicrobial activity against Pseudomonas aeruginosa MTCC 1688 assessed as diameter of growth inhibition zone at 25 ug/ml after 18-24 hr by agar cup diffusion method; conditions: read-out: DIZ
Candida albicans [24] = experiment: Antimicrobial activity against Candida albicans MTCC 227 assessed as diameter of growth inhibition zone at 50 ug/ml after 48-96 hr by agar cup diffusion method; conditions: read-out: DIZ
Streptococcus pyogenes [25] = experiment: Antimicrobial activity against Streptococcus pyogenes MTCC 442 assessed as diameter of growth inhibition zone at 50 ug/ml after 18-24 hr by agar cup diffusion method; conditions: read-out: DIZ
Candida albicans [26] = experiment: Antimicrobial activity against Candida albicans MTCC 227 by agar cup diffusion method
Penicillium [27] = experiment: Antimicrobial activity against Penicillium wild strain by agar cup diffusion method
Streptococcus pyogenes [28] = experiment: Antimicrobial activity against Streptococcus pyogenes MTCC 442 by agar cup diffusion method
Penicillium [29] = experiment: Antimicrobial activity against Penicillium wild strain assessed as diameter of growth inhibition zone at 25 ug/ml after 48-96 hr by agar cup diffusion method; conditions: read-out: DIZ
Pseudomonas aeruginosa [30] = experiment: Antimicrobial activity against Pseudomonas aeruginosa MTCC 1688 assessed as diameter of growth inhibition zone at 50 ug/ml after 18-24 hr by agar cup diffusion method; conditions: read-out: DIZ
Candida albicans [31] = experiment: Antimicrobial activity against Candida albicans MTCC 227 assessed as diameter of growth inhibition zone at 25 ug/ml after 48-96 hr by agar cup diffusion method; conditions: read-out: DIZ
Escherichia coli [32] = experiment: Antimicrobial activity against Escherichia coli MTCC 443 assessed as diameter of growth inhibition zone at 50 ug/ml after 18-24 hr by agar cup diffusion method; conditions: read-out: DIZ
Klebsiella pneumoniae [33] = experiment: Antimicrobial activity against Klebsiella pneumoniae MTCC 109 assessed as diameter of growth inhibition zone at 100 ug/ml after 18-24 hr by agar cup diffusion method; conditions: read-out: DIZ
Penicillium [34] = experiment: Antimicrobial activity against Penicillium wild strain assessed as diameter of growth inhibition zone at 250 ug/ml after 48-96 hr by agar cup diffusion method; conditions: read-out: DIZ
Klebsiella pneumoniae [35] = experiment: Antimicrobial activity against Klebsiella pneumoniae MTCC 109 by agar cup diffusion method
Escherichia coli [36] = experiment: Antimicrobial activity against Escherichia coli MTCC 443 by agar cup diffusion method
Staphylococcus aureus [37] = experiment: Antimicrobial activity against Staphylococcus aureus MTCC 96 assessed as diameter of growth inhibition zone at 250 ug/ml after 18-24 hr by agar cup diffusion method; conditions: read-out: DIZ
Aspergillus clavatus [38] = experiment: Antimicrobial activity against Aspergillus clavatus MTCC 1323 assessed as diameter of growth inhibition zone at 25 ug/ml after 48-96 hr by agar cup diffusion method; conditions: read-out: DIZ
Staphylococcus aureus [39] = experiment: Antimicrobial activity against Staphylococcus aureus MTCC 96 assessed as diameter of growth inhibition zone at 25 ug/ml after 18-24 hr by agar cup diffusion method; conditions: read-out: DIZ
Escherichia coli [40] = experiment: Antimicrobial activity against Escherichia coli MTCC 443 assessed as diameter of growth inhibition zone at 100 ug/ml after 18-24 hr by agar cup diffusion method; conditions: read-out: DIZ
Penicillium [41] = experiment: Antimicrobial activity against Penicillium wild strain assessed as diameter of growth inhibition zone at 100 ug/ml after 48-96 hr by agar cup diffusion method; conditions: read-out: DIZ
Trichophyton rubrum [42] = experiment: Antimicrobial activity against Trichophyton rubrum MTCC 296 assessed as diameter of growth inhibition zone at 100 ug/ml after 48-96 hr by agar cup diffusion method; conditions: read-out: DIZ
Trichophyton rubrum [43] = experiment: Antimicrobial activity against Trichophyton rubrum MTCC 296 assessed as diameter of growth inhibition zone at 25 ug/ml after 48-96 hr by agar cup diffusion method; conditions: read-out: DIZ
Escherichia coli [44] = experiment: Antimicrobial activity against Escherichia coli MTCC 443 assessed as diameter of growth inhibition zone at 250 ug/ml after 18-24 hr by agar cup diffusion method; conditions: read-out: DIZ
Escherichia coli [45] = experiment: Antimicrobial activity against Escherichia coli MTCC 443 assessed as diameter of growth inhibition zone at 25 ug/ml after 18-24 hr by agar cup diffusion method; conditions: read-out: DIZ

COc1ccc(/C=C/C(=O)C2C(=O)NC(=S)NC2=O)cc1OC
zone of inhibition at 250 µg/mL (Trichophyton rubrum [1]): 24 mm | MFC (Trichophyton rubrum [2]): 500 µg/mL (≈ 1500 µM) | MIC (Trichophyton rubrum [2]): 500 µg/mL (≈ 1500 µM) | zone of inhibition at 100 µg/mL (Streptococcus pyogenes [3]): 18 mm | zone of inhibition at 250 µg/mL (Streptococcus pyogenes [4]): 21 mm | zone of inhibition at 100 µg/mL (Aspergillus clavatus [5]): 21 mm | zone of inhibition at 250 µg/mL (Candida albicans [6]): 25 mm | zone of inhibition at 50 µg/mL (Trichophyton rubrum [7]): 22 mm | zone of inhibition at 25 µg/mL (Klebsiella pneumoniae [8]): 14 mm | zone of inhibition at 50 µg/mL (Klebsiella pneumoniae [9]): 15 mm | MBC (Pseudomonas aeruginosa [10]): 200 µg/mL (≈ 598 µM) | MIC (Pseudomonas aeruginosa [10]): 200 µg/mL (≈ 598 µM) | zone of inhibition at 250 µg/mL (Aspergillus clavatus [11]): 23 mm | zone of inhibition at 250 µg/mL (Klebsiella pneumoniae [12]): 19 mm | zone of inhibition at 100 µg/mL (Candida albicans [13]): 25 mm | MBC (Staphylococcus aureus [14]): 500 µg/mL (≈ 1500 µM) | MIC (Staphylococcus aureus [14]): 500 µg/mL (≈ 1500 µM) | zone of inhibition at 50 µg/mL (Staphylococcus aureus [15]): 15 mm | zone of inhibition at 100 µg/mL (Pseudomonas aeruginosa [16]): 18 mm | zone of inhibition at 50 µg/mL (Aspergillus clavatus [17]): 20 mm | zone of inhibition at 100 µg/mL (Staphylococcus aureus [18]): 18 mm | zone of inhibition at 250 µg/mL (Pseudomonas aeruginosa [19]): 20 mm | zone of inhibition at 50 µg/mL (Penicillium [20]): 20 mm | zone of inhibition at 25 µg/mL (Streptococcus pyogenes [21]): 12 mm | MFC (Aspergillus clavatus [22]): 1000 µg/mL (≈ 2990 µM) | MIC (Aspergillus clavatus [22]): 1000 µg/mL (≈ 2990 µM) | zone of inhibition at 25 µg/mL (Pseudomonas aeruginosa [23]): 11 mm | zone of inhibition at 50 µg/mL (Candida albicans [24]): 24 mm | zone of inhibition at 50 µg/mL (Streptococcus pyogenes [25]): 16 mm | MFC (Candida albicans [26]): 1000 µg/mL (≈ 2990 µM) | MIC (Candida albicans [26]): 500 µg/mL (≈ 1500 µM) | MFC (Penicillium [27]): 1000 µg/mL (≈ 2990 µM) | MIC (Penicillium [27]): 1000 µg/mL (≈ 2990 µM) | MBC (Streptococcus pyogenes [28]): 100 µg/mL (≈ 299 µM) | MIC (Streptococcus pyogenes [28]): 62.5 µg/mL (≈ 187 µM) | zone of inhibition at 25 µg/mL (Penicillium [29]): 19 mm | zone of inhibition at 50 µg/mL (Pseudomonas aeruginosa [30]): 15 mm | zone of inhibition at 25 µg/mL (Candida albicans [31]): 20 mm | zone of inhibition at 50 µg/mL (Escherichia coli [32]): 16 mm | zone of inhibition at 100 µg/mL (Klebsiella pneumoniae [33]): 18 mm | zone of inhibition at 250 µg/mL (Penicillium [34]): 24 mm | MBC (Klebsiella pneumoniae [35]): 500 µg/mL (≈ 1500 µM) | MIC (Klebsiella pneumoniae [35]): 250 µg/mL (≈ 748 µM) | MBC (Escherichia coli [36]): 500 µg/mL (≈ 1500 µM) | MIC (Escherichia coli [36]): 500 µg/mL (≈ 1500 µM) | zone of inhibition at 250 µg/mL (Staphylococcus aureus [37]): 20 mm | zone of inhibition at 25 µg/mL (Aspergillus clavatus [38]): 18 mm | zone of inhibition at 25 µg/mL (Staphylococcus aureus [39]): 11 mm | zone of inhibition at 100 µg/mL (Escherichia coli [40]): 18 mm | zone of inhibition at 100 µg/mL (Penicillium [41]): 22 mm | zone of inhibition at 100 µg/mL (Trichophyton rubrum [42]): 23 mm | zone of inhibition at 25 µg/mL (Trichophyton rubrum [43]): 21 mm | zone of inhibition at 250 µg/mL (Escherichia coli [44]): 21 mm | zone of inhibition at 25 µg/mL (Escherichia coli [45]): 12 mm
